Values of other authors, collected in US10806826B2, “Bone graft substitute containing a temporary contrast agent and a method of generating such and a method of use thereof” (BACTERIN INTERNATIONAL, INC., priority 2013, dated 2020).
Where two headings read alike, the source gives them in different places. One block for each compound: values may come before it.

What was measured:
[1] = intravascular
[2] = intravenous
[3] = oral, dosage 2-12 mL/kg

Clearance: excreted within 24 hours ([1]; dosage 500-1500 mgl/kg): ~90% excreted | Clearance/Half-life (t1/2) ([2]; dosage varies by imaging needs): t1/2 = 30-60 minutes
Compound: CC(=O)N(CC(O)CO)c1c(I)c(C(=O)NCC(O)CO)c(I)c(C(=O)NCC(O)CO)c1I (stereo not shown) [Iohexol]

Clearance/Half-life (t1/2) [2]: 140 h
Compound: FC1(F)C(F)(F)C(F)(F)C2(F)C(F)(F)C(F)(F)C(F)(F)C(F)(F)C2(F)C1(F)F (stereo not shown) [Perfluorodecalin]

Clearance/Half-life (t1/2) ([1]; dosage 1.2 g/kg): 9.4 h | Clearance/Half-life (t1/2) ([1]; dosage 1.8 g/kg): t1/2 = 6.1 hours | Clearance: excreted within 24 hours [3]: >95% excreted
Compound: FC(F)(F)C(F)(F)C(F)(F)C(F)(F)C(F)(F)C(F)(F)C(F)(F)C(F)(F)Br [Perfluorooctyl bromide, perfluorooctyl bromide]

Clearance/Half-life (t1/2) [2]: 1510 h
Compound: FC(F)(F)C(F)(F)C(F)(F)N(C(F)(F)C(F)(F)C(F)(F)F)C(F)(F)C(F)(F)C(F)(F)F [Perfluorotripropylamine]
